From the CheMixHub viscosity set

Experiment: xn = mol fraction of the nth substance listed

CCCOC(=O)c1ccccc1 + CCCCCCCCCCCC
101 kPa
Settings	viscosity [mPa·s]
298.15 K, x2 = 0.0304	2.294
298.15 K, x2 = 0.0721	2.175
298.15 K, x2 = 0.1434	2.021
298.15 K, x2 = 0.1817	1.949
298.15 K, x2 = 0.2145	1.892
298.15 K, x2 = 0.3444	1.688
298.15 K, x2 = 0.3881	1.634
298.15 K, x2 = 0.4343	1.583
298.15 K, x2 = 0.4851	1.537
298.15 K, x2 = 0.5395	1.494
298.15 K, x2 = 0.5883	1.458
298.15 K, x2 = 0.6355	1.431
298.15 K, x2 = 0.6936	1.402
298.15 K, x2 = 0.7544	1.38
298.15 K, x2 = 0.8162	1.368
298.15 K, x2 = 0.8809	1.358
298.15 K, x2 = 0.9435	1.354
308.15 K, x2 = 0.0462	1.805
308.15 K, x2 = 0.0938	1.716
308.15 K, x2 = 0.1234	1.663
308.15 K, x2 = 0.1581	1.608
308.15 K, x2 = 0.1951	1.553
308.15 K, x2 = 0.237	1.499
308.15 K, x2 = 0.2799	1.449
308.15 K, x2 = 0.3153	1.411
308.15 K, x2 = 0.359	1.37
308.15 K, x2 = 0.4106	1.326
308.15 K, x2 = 0.4473	1.299
308.15 K, x2 = 0.4959	1.267
308.15 K, x2 = 0.5498	1.236
308.15 K, x2 = 0.6007	1.21
308.15 K, x2 = 0.6592	1.191
308.15 K, x2 = 0.7183	1.172
308.15 K, x2 = 0.7624	1.163
308.15 K, x2 = 0.8324	1.153
308.15 K, x2 = 0.9146	1.146
318.15 K, x2 = 0.026	1.532
318.15 K, x2 = 0.0634	1.473
318.15 K, x2 = 0.0967	1.423
318.15 K, x2 = 0.1355	1.371
318.15 K, x2 = 0.1705	1.328
318.15 K, x2 = 0.2119	1.28
318.15 K, x2 = 0.2499	1.242
318.15 K, x2 = 0.2955	1.201
318.15 K, x2 = 0.3358	1.168
318.15 K, x2 = 0.4031	1.12
318.15 K, x2 = 0.4279	1.105
318.15 K, x2 = 0.48	1.077
318.15 K, x2 = 0.5272	1.055
318.15 K, x2 = 0.5827	1.033
318.15 K, x2 = 0.6342	1.015
318.15 K, x2 = 0.6953	0.997
318.15 K, x2 = 0.7509	0.985
318.15 K, x2 = 0.8169	0.975
318.15 K, x2 = 0.8761	0.968

CCCCCCCC(=O)O + CCCCCCCCCCCC(=O)O
100 kPa, x2 = 0.25
Settings	viscosity [mPa·s]
293.15 K	8.223
298.15 K	7.085
303.15 K	6.158
308.15 K	5.394
313.15 K	4.759
318.15 K	4.227
323.15 K	3.777
